# Assays:
# Assay type in all cases: cell-based, human
# [1] = tested on: intracellular ROS in A2780 cells; assay: Intracellular ROS evaluation (H2DCF-DA, flow cytometry); conditions: A2780, 48 h treatment at 72 h IC50 dose, H2DCFDA
# Protocol: Within the cell, H2DCF-DA is de-acetylated by cellular esterases to a non-fluorescent compound, which becomes fluorescent once it is oxidized by cellular ROS into 2′,7′-dichlorofluorescein (DCF). Cells were trypsinized, washed, and incubated with 5 µM H2DCFDA for 30 min in the dark. Then, cells were washed again and immediately analyzed using a FACSCantoII (BD Biosciences, New Jersey, USA) flow cytometer.
# [2] = tested on: complex I-driven mitochondrial respiration; assay: Respiratory control ratio, complex I-driven respiration in permeabilized cells; conditions: permeabilized A2780, 24 h treatment; control about 3.1
# Protocol: The analysis of the oxygen consumption rate (OCR) was performed using a Clark-type O2 electrode inserted in a thermostated airtight chamber (Oxygraph Plus System, Hansatech Instruments, King’s Lynn, Norfolk, UK). Briefly, control and treated cells (12 and 24 h) were trypsinized, washed with PBS, and suspended in culture medium to measure the steady state OCR for 10 min. The OCR values, expressed as nmol of consumed O2/mL/min, were normalized to the cellular protein content. To evaluate the response of complex I, complex II/III, and ATP-synthase-driven OCRs in the presence or absence of gold-treatment, we used the protocol described by Baracca et al.. Cells were trypsinized, washed, and resuspended in buffer containing sucrose, TRIS-HCl, MgSO4, EDTA, and KH2PO4. Cell suspension was treated with digitonin to allow cell membrane permeabilization. To stimulate complex I, 250 mM glutamate/malate was added, whereas to stimulate complex II, 250 mM succinate was added (state 2 respiration). Then, to induce ATP-synthase-driven mitochondrial respiration, 10 mM ADP was added (state 3 respiration). To estimate the mitochondrial respiratory capacity, defined as the respiratory control ratio (RCR), state 3/state 2 ratios were calculated for control and treated cells.
# OXPHOS complex I = assay: Western blot of OXPHOS complex I content; conditions: A2780, 24 h at 72 h IC50 dose, vs controls
# Protocol: After drug treatments, cells were lysed in RIPA buffer supplemented with a cocktail of protease and phosphatase inhibitors. […] To favor the electrophoretic separation, 25% sample loading buffer (SLB) was added to the cell lysates. Here, 20 µg samples of proteins from controls and treated cells were loaded on 4–20% pre-cast SDS-PAGE gels and blotted onto PVDF membranes. Primary antibodies Bcl-2 (1:1000 dilution,#sc-7382, Santa Cruz, Dallas, Texas USA), Bax (1:1000 dilution, #sc-493, Santa Cruz), OXPHOS cocktail (1:1000 dilution, #ab110413, AbCam, Cambridge, UK), citrate synthase (1:1000 dilution, #sc-515640, Santa Cruz), ASK1 (1:1000 dilution, #sc-390275, Santa Cruz), phospho(Thr838)-ASK1 (1:1000 dilution, #CPA6042, Cohesion Biosciences, London, UK), AKT (1:1000 dilution, #sc-5298, Santa Cruz), and phospho(Ser473)-AKT (1:1000 dilution, #GTX128414, GeneTex, Irvine, CA, USA) were added to 2% non-fat dry milk in PBS-tween solution, while PVDF membranes were incubated overnight at 4 °C. Then, membranes were treated with horseradish peroxidase (HRP)-conjugated secondary antibodies (1:5000 dilution, Santa Cruz) and immunoreactive bands were detected with an ECL kit detection system on an Amersham Imager 600 (GE Healthcare, Chicago, IL, USA). For the quantification, a densitometric analysis of the bands was performed using ImageJ2 software version 2.0.0-rc-64 [23]. The intensities of the immunostained bands were normalized on the Coomassie brilliant blue R-250-stained total protein from the same PVDF membrane.
# [3] = tested on: lactate production of A2780 cells; assay: Lactate production assay (K-LATE kit) in culture medium; conditions: A2780, 24 h treatment at 72 h IC50 dose, vs controls
# Protocol: The lactate amount was measured in cell culture media after 24 h of treatment with K-LATE kit (Megazyme, Bray, Ireland) according to the data sheet provided by the manufacturer. Lactate content was normalized on the protein content of the same sample.
smiles,measurement,setting,value
"Cc1ccc2ccc3ccc(C)[n+]4c3c2[n+]1[Au-]41[O][Au-]2([O]1)[n+]1c(C)ccc3ccc4ccc(C)[n+]2c4c31.F[P-](F)(F)(F)(F)F.F[P-](F)(F)(F)(F)F [Au2phen, ((2,9-dimethyl-1,10-phenanthroline)2Au2(µ-O)2)(PF6)2]",ROS increase vs control cells,[1],about 3.7 fold
same,"respiratory control ratio (RCR), complex I-driven",[2],about 1.8
same,decrease of complex I protein content,OXPHOS complex I,48%
same,increase of lactate level in medium,[3],about 20%
"CCOC(=O)CN(C)C1=[S+][Au-]([Br])([Br])[S]1 [AuL12, dibromo(ethylsarcosinedithiocarbamate)gold(III), reference compound]",ROS increase vs control cells,[1],about 2.8 fold
same,"respiratory control ratio (RCR), complex I-driven",[2],2.3
same,decrease of complex I protein content,OXPHOS complex I,28%
same,increase of lactate level in medium,[3],~29%
"Cc1cccc2[n+]1[Au-]1([O][Au-]3([O]1)[n+]1c(C)cccc1-c1cccc(C)[n+]13)[n+]1c(C)cccc1-2.F[P-](F)(F)(F)(F)F.F[P-](F)(F)(F)(F)F [Auoxo6, ((6,6′-dimethyl-2,2′-bipyridine)2Au2(µ-O)2)(PF6)2]",ROS increase vs control cells,[1],about 2.8 fold
same,"respiratory control ratio (RCR), complex I-driven",[2],2.1
same,decrease of complex I protein content,OXPHOS complex I,50%
same,increase of lactate level in medium,[3],~25%
